Experimental data published in ChEMBL document CHEMBL1140806, “Optimization of the heterocyclic core of the quinazolinone-derived CXCR3 antagonists” (Bioorg Med Chem Lett, 2008).

What was measured:
[1] = target: T1, C-X-C chemokine receptor type 3 (Homo sapiens, UniProt P49682); assay: Displacement of [125I]IP-10 from CXCR3 receptor expressed in human PBMC in EDTA-anti-coagulated human plasma
T1 sequence (P49682 whole entry): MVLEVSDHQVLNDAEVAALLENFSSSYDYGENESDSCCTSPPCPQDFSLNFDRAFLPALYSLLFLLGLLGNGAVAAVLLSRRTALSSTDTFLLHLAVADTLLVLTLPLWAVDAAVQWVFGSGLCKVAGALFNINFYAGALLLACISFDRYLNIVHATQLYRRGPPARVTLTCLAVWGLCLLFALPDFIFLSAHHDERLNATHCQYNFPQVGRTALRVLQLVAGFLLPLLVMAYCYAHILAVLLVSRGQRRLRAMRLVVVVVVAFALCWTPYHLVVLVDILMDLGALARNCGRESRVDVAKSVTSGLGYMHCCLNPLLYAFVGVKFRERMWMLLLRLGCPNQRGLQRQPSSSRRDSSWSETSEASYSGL

[2] = Oral bioavailability in rat at 2 mg/kg; assay type: ADME, organism-based; settings: in vivo
[3] = target: T1, C-X-C chemokine receptor type 3; assay: Displacement of [125I]IP-10 from CXCR3 receptor expressed in human PBMC in RPMI-1640 buffer supplemented with 0.5% BSA
[4] = Mean residence time in rat at 0.5 mg/kg, iv; assay type: ADME, organism-based; design: dose 0.5 mg/kg, route intravenous; settings: in vivo
[5] = Clearance in rat at 0.5 mg/kg, iv; assay type: ADME, organism-based; design: dose 0.5 mg/kg, route intravenous; settings: in vivo

IC50 [1] [µM]	bioavailability [2] [%]	IC50 [3] [µM]	MRT [4] [min]	clearance [5] [L/h/kg]	Ki [3] [µM]	Structure (SMILES)
0.079						CCS(=O)(=O)CCN(C(=O)Cc1ccc(F)c(C(F)(F)F)c1)[C@H](C)c1nc2ncccn2c1-c1ccc(C#N)cc1
0.027	31	0.002	22.2	2.38		CCS(=O)(=O)CCN(C(=O)Cc1ccc(F)c(C(F)(F)F)c1)[C@H](C)c1nc2ncccc2cc1-c1ccc(C#N)cc1
0.035		0.006				CCS(=O)(=O)CCN(C(=O)Cc1ccc(F)c(C(F)(F)F)c1)[C@H](C)c1nc2ccccc2n1-c1ccc(C#N)cc1
	47		31.8	2.38		CCS(=O)(=O)CCN(C(=O)Cc1ccc(F)c(C(F)(F)F)c1)[C@H](C)c1nc2ncccc2c(=O)n1-c1ccc(C#N)cc1
0.06		0.004	21	3.78		CCS(=O)(=O)CCN(C(=O)Cc1ccc(F)c(C(F)(F)F)c1)[C@H](C)c1nc2c(c(=O)n1-c1ccc(C#N)cc1)CCCN2C
0.021	17	0.0008	90	2.53		CCS(=O)(=O)CCN(C(=O)Cc1ccc(F)c(C(F)(F)F)c1)[C@H](C)c1nc2ccccc2cc1-c1ccc(C#N)cc1
0.121		0.009				CCS(=O)(=O)CCN(C(=O)Cc1ccc(F)c(C(F)(F)F)c1)[C@H](C)c1nc2ccccc2nc1-c1ccc(C#N)cc1
0.523		0.018				CCS(=O)(=O)CCN(C(=O)Cc1ccc(F)c(C(F)(F)F)c1)[C@H](C)c1nn2ccccc2c1-c1ccc(C#N)cc1
0.115		0.005				CCS(=O)(=O)CCN(C(=O)Cc1ccc(F)c(C(F)(F)F)c1)[C@H](C)c1cc2ccccc2nc1-c1ccc(C#N)cc1
	24		84	0.24		CCS(=O)(=O)CCN(C(=O)Cc1ccc(F)c(C(F)(F)F)c1)[C@H](C)c1nc2ccccn2c(=O)c1-c1ccc(C#N)cc1
0.021	24		15.6	2.18	0.003	CCS(=O)(=O)CCN(C(=O)Cc1ccc(F)c(C(F)(F)F)c1)[C@H](C)c1nc2ccccn2c1-c1ccc(C#N)cc1
